Results taken from EP2140864A2 (H. Lundbeck A/S, priority 2001, dated 2002).
Marks after values point to notes of the source that are not given here.

Columns and labels:
[1] = test system: Male albino Sprague-Dawley rats; assay: Rat Social Interaction Test (SIT); assay type: in vivo
Method: Rats were allowed to acclimate to the animal care facility for 5 days and were housed singly for 5 days prior to testing. Animals were handled for 5 minutes per day. The design and procedure for the Social Interaction Test was carried out as previously described by Kennett, et al. (1997). On the test day, weight matched pairs of rats (± 5%), unfamiliar to each other, were given identical treatments and returned to their home cages. Animals were randomly divided into 5 treatment groups, with 5 pairs per group, and were given one of the following i.p. treatments: Example 92 (10, 30 or 100 mg/kg), vehicle (1 ml/kg) or chlordiazepoxide (5 mg/kg). Dosing was 1 hour prior to testing. Rats were subsequently placed in a white perspex test box or arena (54 x 37 x 26 cm), whose floor was divided up into 24 equal squares, for 15 minutes. An air conditioner was used to generate background noise and to keep the room at approximately 74°F. All sessions were videotaped using a JVC camcorder (model GR-SZ1, Elmwood Park, NJ) with either TDK (HG ultimate brand) or Sony 30 minute videocassettes. All sessions were conducted between 1:00 - 4:30 P.M. Active social interaction, defined as grooming, sniffing, biting, boxing, wrestling, following and crawling over or under, was scored using a stopwatch (Sportsline model no. 226, 1/100 sec. discriminability). The number of episodes of rearing (animal completely raises up its body on its hind limbs), grooming (licking, biting, scratching of body), and face washing (i.e. hands are moved repeatedly over face), and number of squares crossed were scored. Passive social interaction (animals are lying beside or on top of each other) was not scored. All behaviors were assessed later by an observer who was blind as to the treatment of each pair. At the end of each test, the box was thoroughly wiped with moistened paper towels.
Male albino Sprague-Dawley rats (Taconic Farms, NY) were housed in pairs under a 12 hr light dark cycle (lights on at 0700 hrs.) with free access to food and water.
Example 92 was dissolved in 100% DMSO (Sigma Chemical Co., St. Louis, MO). Chlordiazepoxide (purchased from Sigma Chemical Co., St. Louis, MO) was dissolved in double distilled water. The vehicle consisted of 50% DMSO (v/v). All drug solutions were made up 10 minutes prior to injection and the solutions were discarded.
Example 34 was dissolved in 5% lactic acid, v/v. The vehicle consisted of 100% dimethylacetamide (DMA) and this was used to make up all drug solutions. All drug solutions were made up fresh each day and any unused solutions were discarded at the end of the test day. The volume of drug solution administered was 1 ml/kg.
The social interaction data (time interacting, rearing and squares crossed) were subjected to a randomized, one-way ANOVA and post hoc tests conducted using the Student-Newman-Keuls test. The data were subjected to a test of normality (Shapiro-Wilk test). The data were analyzed using the GBSTAT program, version 6.5 (Dynamics Microsystems, Inc., Silver Spring, MD, 1997). All data are presented as means ± S.E.M.

[2] = test system: Male albino Sprague-Dawley rats; assay: Rat Social Interaction Test (SIT); assay type: in vivo; details: for Social Interaction: unfamiliar cage mates in a familiar arena
[3] = target: T1, human histamine H1 receptor (Homo sapiens, UniProt P35367); assay: Radioligand binding, histamine H1 receptor; details: for selectivity ratio hH1: Table 10, Ki hH1 divided by Ki hGAL3
T1 construct: expressed in transfected cells
Description: Other receptors: Cell membranes expressing human dopamine D1, D2, D4 and rat D3 receptors were purchased through BioSignal, Inc. (Montreal, Canada). Binding assays using the histamine H1 receptor; dopamine receptors; and α1A, α1E, and α2 adrenergic receptors may be carried out according to the procedures described in U.S. Patent No. 5,780,485, the disclosure of which is hereby incorporated by reference in its entirety into this application. Binding assays using the dopamine D5 receptor may be carried out according to the procedures described in U.S. Patent No. 5,882,855, the disclosure of which is hereby incorporated by reference in its entirety into this application. Binding assays for the human α1D adrenergic receptor may be carried out according to the procedures described in U.S. Patent No. 6,156,518, the disclosure of which is hereby incorporated by reference in its entirety into this application.
Binding data were analyzed using nonlinear regression and statistical techniques available in the GraphPAD Prism package (San Diego, CA). Enzymatic assay data were derived from a standard curve of reference compound data.

[4] = 0.03 mg/kg p.o., one hour before test
[5] = 0.1 mg/kg p.o., one hour before test
[6] = 0.3 mg/kg p.o., one hour before test
[7] = 1 mg/kg p.o., one hour before test
[8] = 10 mg/kg i.p., 1 hour prior to testing
[9] = 100 mg/kg i.p., 1 hour prior to testing
[10] = 30 mg/kg i.p., 1 hour prior to testing

T1 sequence (P35367 whole entry): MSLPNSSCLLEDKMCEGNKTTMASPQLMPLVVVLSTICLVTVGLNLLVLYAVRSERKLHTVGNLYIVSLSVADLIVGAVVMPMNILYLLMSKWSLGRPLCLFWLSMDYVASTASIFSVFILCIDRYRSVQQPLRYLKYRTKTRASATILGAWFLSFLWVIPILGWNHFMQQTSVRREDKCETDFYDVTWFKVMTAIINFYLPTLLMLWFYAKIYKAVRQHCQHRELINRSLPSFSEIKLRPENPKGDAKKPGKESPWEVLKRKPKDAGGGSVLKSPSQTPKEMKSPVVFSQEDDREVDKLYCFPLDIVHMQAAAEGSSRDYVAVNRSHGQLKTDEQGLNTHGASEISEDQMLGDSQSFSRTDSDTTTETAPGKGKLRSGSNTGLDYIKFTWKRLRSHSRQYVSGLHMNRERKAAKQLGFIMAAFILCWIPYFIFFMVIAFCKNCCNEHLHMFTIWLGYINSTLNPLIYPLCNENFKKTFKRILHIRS

With `Cc1ccc(Nc2cc(N3CCCCC3)nc(N3CCN(c4ncccc4C(F)(F)F)CC3)n2)cc1` [Example 34] the “anxiolytic profile in the Social Interaction Test (conclusion)” value ([1]; overall conclusion of the study) was “produces an anxioltyic action”, the Grooming bouts [2, 4] was 4.0 ± 0.4^& and the Rearing [2, 4] was 27 ± 3. For the same compound, the “Squares Crossed” value [2, 4] was 312 ± 23, the “Social Interaction” value [2, 4] was 62 ± 11 s and the Grooming bouts [2, 5] was 7.6 ± 0.5^+. For the same compound, the Rearing [2, 5] was 40 ± 5, the “Squares Crossed” value [2, 5] was 295 ± 40 and the “Social Interaction” value [2, 5] was 66 ± 7 s. The Grooming bouts [2, 6] was 7.2 ± 1.1, the Rearing [2, 6] was 27 ± 2^S and the “Squares Crossed” value [2, 6] was 363 ± 17. For the same compound, the “Social Interaction” value [2, 6] was 53 ± 6 s, the Grooming bouts [2, 7] was 7.3 ± 0.8 and the Rearing [2, 7] was 40 ± 1. The “Squares Crossed” value [2, 7] was 343 ± 15^@, the “Social Interaction” value [2, 7] was 69 ± 6 s and the “increase in the duration of social interaction compared to vehicle” value ([2]; 0.03, 0.1, 0.3 or 1 mg/kg p.o., single administration) was 2-2.6 fold.
In the case of `CN(C)c1cc(Nc2ccc(Cl)c(Cl)c2)nc(Nc2ccccc2)n1` [Example 60], the Ki ([3]; Table 9, read-out: hH1 Ki) is reported as 39.9 µM and the “selectivity ratio hH1” value [3] is reported as >100.
For `O=C1C(=Nc2cccc(C(F)(F)F)c2)c2ccccc2N1c1ccccc1` [Example 92, 1-PHENYL-3- [[3-(TRIFLUOROMETHYL)PHENYL]IMINO]-1,3-DIHYDRO-2H-INDOL-2-ONE], the “selectivity ratio hH1” value [3] was >100, the “Squares Crossed” value [1, 8] was 298 ± 40 and the “Grooming bouts” value [1, 9] was 6.8 ± 1.3. For the same compound, the Rearings [1, 9] was 31 ± 4, the “Grooming bouts” value [2, 8] was 6.1 ± 0.5 and the Rearings [2, 8] was 47 ± 8^a. The “Grooming bouts” value [2, 10] was 6.2 ± 0.7, the Rearings [2, 10] was 45 ± 5^b and the “Squares Crossed” value [2, 10] was 368 ± 36. The “Squares Crossed” value [2, 9] was 195 ± 19^c.
